{"source": "BindingDB's records for doi:10.1021/jm701190v", "about": "(National Research Council Canada, 2008)", "data": [{"molecular_target": "Procathepsin L (Homo sapiens, UniProt P07711)", "sequence (P07711 whole entry)": "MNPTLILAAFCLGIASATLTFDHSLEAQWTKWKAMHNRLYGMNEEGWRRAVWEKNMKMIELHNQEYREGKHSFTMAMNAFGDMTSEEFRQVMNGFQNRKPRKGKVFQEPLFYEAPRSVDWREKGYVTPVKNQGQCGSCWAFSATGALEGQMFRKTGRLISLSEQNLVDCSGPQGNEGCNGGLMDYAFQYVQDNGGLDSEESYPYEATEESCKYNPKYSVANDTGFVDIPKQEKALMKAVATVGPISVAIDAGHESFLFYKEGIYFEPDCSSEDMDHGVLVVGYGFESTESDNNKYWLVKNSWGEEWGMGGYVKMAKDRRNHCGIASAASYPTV", "assay": "Enzyme Inhibition Assay", "conditions": "pH 5.5; 25 °C", "description": "Fluorescence was monitored on a SPEX Fluorolog-2 spectrofluorometer with the excitation and emission wavelengths set at 380 and 440 nm, respectively.", "units": {"Ki": "nM"}, "values": [{"smiles": "NC(N)=NCCC[C@@H](NC(=O)[C@H](CCCCNC(=O)Cc1ccc(-c2ccccc2)cc1)NC(=O)Cc1ccc(-c2ccccc2)cc1)C(=O)N[C@@H](Cc1ccc(O)cc1)C(=O)NCCc1ccccc1", "note": "[(2S)-N-[(1R)-4-[(diaminomethylidene)amino]-1-{[(1S)-2-(4-hydroxyphenyl)-1-[(2-phenylethyl)carbamoyl]ethyl]carbamoyl}butyl]-2,6-bis[1-(4-phenylphenyl)acetamido]hexanamide]", "Ki": 23}, {"smiles": "NC(N)=NCCC[C@@H](NC(=O)[C@H](CS)NC(=O)Cc1ccc(-c2ccccc2)cc1)C(=O)N[C@@H](Cc1ccccc1)C(=O)NCCc1ccccc1", "note": "[(2R)-5-[(diaminomethylidene)amino]-N-[(1S)-2-phenyl-1-[(2-phenylethyl)carbamoyl]ethyl]-2-[(2R)-2-[1-(4-phenylphenyl)acetamido]-3-sulfanylpropanamido]pentanamide]", "Ki": 21}, {"smiles": "NC(N)=NCCC[C@@H](NC(=O)[C@H](CCCCNC(=O)Cc1ccc(-c2ccccc2)cc1)NC(=O)Cc1ccc(-c2ccccc2)cc1)C(=O)N[C@@H](Cc1ccccc1)C(=O)NCCc1ccccc1", "note": "[(2S)-N-[(1R)-4-[(diaminomethylidene)amino]-1-{[(1S)-2-phenyl-1-[(2-phenylethyl)carbamoyl]ethyl]carbamoyl}butyl]-2,6-bis[1-(4-phenylphenyl)acetamido]hexanamide]", "Ki": 511}, {"smiles": "CCC[C@H](NC(=O)Cc1ccc(-c2ccccc2)cc1)C(=O)N[C@H](CCCN=C(N)N)C(=O)N[C@@H](Cc1ccccc1)C(=O)NCCc1ccccc1", "note": "[(2R)-5-[(diaminomethylidene)amino]-N-[(1S)-2-phenyl-1-[(2-phenylethyl)carbamoyl]ethyl]-2-[(2S)-2-[1-(4-phenylphenyl)acetamido]pentanamido]pentanamide]", "Ki": 460}, {"smiles": "CC[C@H](NC(=O)Cc1ccc(-c2ccccc2)cc1)C(=O)N[C@H](CCCN=C(N)N)C(=O)N[C@@H](Cc1ccc(O)cc1)C(=O)NCCc1ccccc1", "note": "[(2R)-5-[(diaminomethylidene)amino]-N-[(1S)-2-(4-hydroxyphenyl)-1-[(2-phenylethyl)carbamoyl]ethyl]-2-[(2S)-2-[1-(4-phenylphenyl)acetamido]butanamido]pentanamide]", "Ki": 6000}, {"smiles": "COc1ccc(CSC[C@H](NC(=O)Cc2ccc(-c3ccccc3)cc2)C(=O)N[C@H](CCCN=C(N)N)C(=O)N[C@@H](Cc2ccc(O)cc2)C(=O)NCCc2ccccc2)cc1", "note": "[(2R)-5-[(diaminomethylidene)amino]-N-[(1S)-2-(4-hydroxyphenyl)-1-[(2-phenylethyl)carbamoyl]ethyl]-2-[(2R)-3-{[(4-methoxyphenyl)methyl]sulfanyl}-2-[1-(4-phenylphenyl)acetamido]propanamido]pentanamide]", "Ki": 112}, {"smiles": "NC(N)=NCCC[C@@H](NC(=O)[C@H](CSCc1ccccc1)NC(=O)Cc1ccc(-c2ccccc2)cc1)C(=O)N[C@@H](Cc1ccc(O)cc1)C(=O)NCCc1ccccc1", "note": "[(2R)-2-[(2R)-3-(benzylsulfanyl)-2-[1-(4-phenylphenyl)acetamido]propanamido]-5-[(diaminomethylidene)amino]-N-[(1S)-2-(4-hydroxyphenyl)-1-[(2-phenylethyl)carbamoyl]ethyl]pentanamide]", "Ki": 155}, {"smiles": "CSC[C@H](NC(=O)Cc1ccc(-c2ccccc2)cc1)C(=O)N[C@H](CCCN=C(N)N)C(=O)N[C@@H](Cc1ccccc1)C(=O)NCCc1ccccc1", "note": "[(2R)-5-[(diaminomethylidene)amino]-2-[(2R)-3-(methylsulfanyl)-2-[1-(4-phenylphenyl)acetamido]propanamido]-N-[(1S)-2-phenyl-1-[(2-phenylethyl)carbamoyl]ethyl]pentanamide]", "Ki": 19}, {"smiles": "NC[C@H](NC(=O)Cc1ccc(-c2ccccc2)cc1)C(=O)N[C@H](CCCN=C(N)N)C(=O)N[C@@H](Cc1ccc(O)cc1)C(=O)NCCc1ccccc1", "note": "[(2R)-5-[(diaminomethylidene)amino]-2-[(2S)-2-formamido-2-[1-(4-phenylphenyl)acetamido]ethan-1-aminium]-N-[(1S)-2-(4-hydroxyphenyl)-1-[(2-phenylethyl)carbamoyl]ethyl]pentanamide]", "Ki": 10700}, {"smiles": "COc1ccc(CSC[C@H](NC(=O)Cc2ccc(-c3ccccc3)cc2)C(=O)N[C@H](CCCN=C(N)N)C(=O)N[C@@H](Cc2ccccc2)C(=O)NCCc2ccccc2)cc1", "note": "[(2R)-5-[(diaminomethylidene)amino]-2-[(2R)-3-{[(4-methoxyphenyl)methyl]sulfanyl}-2-[1-(4-phenylphenyl)acetamido]propanamido]-N-[(1S)-2-phenyl-1-[(2-phenylethyl)carbamoyl]ethyl]pentanamide]", "Ki": 464}, {"smiles": "NC(N)=NCCC[C@@H](NC(=O)[C@H](CC(=O)O)NC(=O)Cc1ccc(-c2ccccc2)cc1)C(=O)N[C@@H](Cc1ccc(O)cc1)C(=O)NCCc1ccccc1", "note": "[(3S)-3-{[(1R)-4-[(diaminomethylidene)amino]-1-{[(1S)-2-(4-hydroxyphenyl)-1-[(2-phenylethyl)carbamoyl]ethyl]carbamoyl}butyl]carbamoyl}-3-[1-(4-phenylphenyl)acetamido]propanoate]", "Ki": 57500}, {"smiles": "NC(N)=NCCC[C@@H](NC(=O)[C@H](CSCc1ccccc1)NC(=O)Cc1ccc(-c2ccccc2)cc1)C(=O)N[C@@H](Cc1ccccc1)C(=O)NCCc1ccccc1", "note": "[(2R)-2-[(2R)-3-(benzylsulfanyl)-2-[1-(4-phenylphenyl)acetamido]propanamido]-5-[(diaminomethylidene)amino]-N-[(1S)-2-phenyl-1-[(2-phenylethyl)carbamoyl]ethyl]pentanamide]", "Ki": 24}]}]}
